Experimental data taken from patent US7125847B1, “Mechanically activated channel blocker” (priority 2000, dated 2006).
Entries after “also recorded” stand apart in the source; their conditions may differ. Where no end group is shown, it is not given here.

Experiments:
Assay type in all cases: cell-based
[1] = test system: whole-cell swelling-activated currents in adult rat astrocytes; assay: Whole-cell (Nystatin perforated patch) currents in adult rat astrocytes, isotonic and hypotonic swelling
Protocol: It is considered that part of the swelling activated currents are attributable to SACs. To illustrate this embodiment, adult rat astrocytes were cultured as described above. Whole cell current was measured by the Nystatin perforated patch. Bath saline was the same as in Example 2. Pipette saline consisted of: KCl 80 mM, K2SO4 30 mM, NaCl 10 mM, MgSO4 3 mM, CaCl20.13 mM, EGTA 0.23 mM and Hepes 10 mM, pH 7.3. Nystatin was dissolved in pipette saline to a final concentration of […]. After patch formation, access resistance was allowed to drop to ˜15 MW (uncompensated), after which the series resistance compensation was set at ˜65%, and prediction was set to ˜75%. Whole cell capacitance measurements ranged from ˜25–50 pF. Whole cell currents were monitored by either a voltage step protocol shown in FIG. 7, or by 600 ms voltage ramps. During hypotonic swelling the cell was perfused initially with isotonic saline (bath saline with 160 mM mannitol replacing 80 mM NaCl) before switching to hypotonic saline (isotonic saline minus 140 mM mannitol). The BPS-8 perfusion system was used to rapidly (<200 ms) change the bathing solution. Peak currents were measured at 3–5 ms into voltage steps.

[2] = test system: MSC currents in normal rat kidney cells; assay: Outside-out patch clamp of mechanosensitive channel currents in normal rat kidney cells; details: 5 μM
Protocol: NRK cell culture: Normal rat kidney cells (CCA identifier is 49F) at passages 20–25, were maintained in DMEM, 5% fetal bovine serum and 1%
Penicillin/Streptomycin. Cells were plated onto poly-L-lysine coated cover-slips, and used in experiments between 2 and 6 days after passage.
Electrophysiology: An Axopatch 200B (Axon Instruments, California) was used for patch clamping, while experimental protocols and data acquisition were controlled by Axon Instruments pClamp8 software via a Digidata 1322A acquisition system. Currents were sampled at 10 KHz and low-pass filtered at 2 KHz through the 4 pole Bessel filter on the Axopatch 200B. All potentials are defined with respect to the extracellular surface. Electrodes were pulled on a Model PC-84 pipette puller (Brown-Flaming Instruments, California), painted with Sylgard 184 (Dow Corning Corp. Midland Mich.) and fire polished. Electrodes were filled with KCl saline (KCl 140 mM, EGTA 5 mM, MgSO4 2 mM, Hepes 10 mM, pH 7.3) and had resistances ranging from 10–20 MΩ. Bath saline consisted of NaCl—140 mM, KCl—5 mM, CaCl2—2 mM, MgSO4—0.5 mM, glucose—6 mM and Hepes—10 mM, pH 7.3. Pressure and suction were applied to the pipette by a HSPC-1 pressure clamp (ALA Scientific Instruments, New York) controlled by the pClamp software. Perfusion of toxin samples was performed by a pressurized local perfusion system BPS-8 (ALA scientific instruments, NY) with 8 separate channels. Off-line data analysis was performed with Clampfit and Origin 6.1 software.

[3] = test system: stretch-activated channels (SACs); assay: Outside-out patch clamp of stretch-activated channels in adult rat astrocytes
Protocol: This embodiment describes the effect of the peptide GsMTx-4 variant (SEQ ID NO:1) on SACs. To illustrate this, adult rat astrocytes which are known to have SACs, were used. Adult rat astrocytes were cultured according to standard methods. Briefly, activated adult astrocytes isolated from gelatin-sponge implants from adult Sprague-Dawley rat brains obtained according to the method of Langan et al. (1995, Glia, 14:174–184) were used at passage numbers 2–4. Astrocytes were maintained in DMEM, 10% fetal bovine serum and 1% Penicillin/Streptomycin and were used in experiments between 2 and 5 days after passage. Cells between passage 4 and 35 expressed SACs with the same properties Both stellate process bearing cells and flat polygonal (fibroblast-like) cells were used.
The cultured astrocytes were used for single channel and whole cell recorndings. For single channel patch clamp, patch voltage was controlled by an Axopatch 200B (Axon Instruments, Calif.) and currents were recorded directly onto computer disk via a Labmaster DMA Ver. B (Scientific Instruments, Calif.) board controlled by pClamp6-Clampex acquisition software (Axon Instruments, California). Currents were sampled at 10 KHz and low-pass filtered at 2 KHz through the 4 pole Bessel filter on the Axopatch 200B. Experimental voltage protocols were controlled by pClamp6-Clampex. All potentials are defined with respect to the extracellular surface.
Electrodes were pulled on a Model PC-84 pipette puller (Brown-Flaming Instruments, Calif.), painted with Sylgard 184 (Dow Corning Corp. Midland Mich.) and fire polished. Electrodes were filled with KCl saline (KCl 140 mM, EGTA 5 mM, MgSO4 2 mM, Hepes 10 mM, pH 7.3) and had resistances ranging from 3–8 MWBath saline consisted of NaCl 140 mM, KCl 5 mM, MgSO4 1 mM, CaCl2 1 mM, glucose 6 mM and Hepes 10 mM, pH 7.3.
Pressure and suction were applied to the pipette by a pressure clamp. Pressure values represent pressure in the pipette, i.e., the intracellular side of the membrane in outside-out patches. Suction applied to a cell-attached patch has the same sign as pressure applied to an outside-out patch. The rise time of pressure changes at the tip were determined by monitoring the rate of current change when pressure steps were applied to an electrode containing 150 mM KCl solution and placed in a water bath. The t10-90 was ˜5 ms as determined by exponential fits to the current decay. Perfusion of toxin samples was performed by a pressurized bath perfusion system BPS-8 (ALA scientific instruments, NY) with 8 separate channels.
Off-line data analysis was performed with pClamp6 analysis software and Origin 5.0. Maximal unitary channel currents were determined via Guassian fits to the peaks of all points amplitude histograms generated from records containing 1–3 channels. […] Some of these records were analyzed by determining all of the step-like changes in current during the pressure application and selecting the average maximal current level as the unitary current. The data analyzed by this method was in good agreement with the unitary current levels determined by analysis of all points amplitude histograms from single channel patches.
The outside out patches from adult astrocytes as described above were used for testing the HPLC fractions obtained in Example 1. The HPLC fractions were lyophilized, redissolved at a 1:1000 dilution and perfused onto outside out patches. […] The fraction containing the single peak in FIG. 1D was then tested for activity against SACs. […] The patch was held at −50 mV, and the pressure pulse is shown above the records.
The entire experiment is comprised of 60 pressure steps: steps 1–20 occur before GsMTx-4 application; steps 21–38 while GsMTx-4 is being perfused; steps 39–60 occur during washout. Each 500 ms pressure step was separated by 1.5 seconds at 0 pressure.
The association rate of the toxin was determined by applying GsMTx-4 to an outside-out patch while the channels were activated by stretch (FIG. 5). […]

[Cl-].[Cs+] [CsCl, reference compound]
effect on whole-cell current in isotonic saline ([1]; CsCl, hyperpolarized potentials): significant decrease in current

cloned: GsMTx4 liberated by thrombin from a thioredoxin fusion protein, with three extra amino acids at the N-terminus (SGMGCLEFWWKCNPNDDKCCRPKLKCSKLFKLCNFSF; ends and bridges not checked; cysteine pairing not given here)
block of mechanosensitive channels [2]: blocked; also recorded: active in blocking SACs
block of mechanically sensitive current ([2]; outside-out patches held at −50 mV): greater than 75%

GCLEFWWKCNPNDDKCCRPKLKCSKLFKLCNFSSG (not fully specified (C-terminus); ends and bridges not checked; listed as Grammastola spatulata) [SEQ ID NO.1, 35 amino acids with C-term glycine amide]
SAC blocking activity [3]: has SAC blocking activity

synthetic: chemically synthesized GsMTx4 with a C-terminal phenylalanine, folded with GSH/GSSG (GCLEFWWKCNPNDDKCCRPKLKCSKLFKLCNFSF-NH2; disulfide (positions not given here); not fully specified (bridges); also: three intramolecular disulfide bonds, pairing not given here)
block of mechanosensitive channels [2]: active in blocking SACs
block of mechanosensitive channels ([2]; listed as synthetic peptide): blocked

O=S(=O)(O)c1cc(N=C=S)ccc1C=Cc1ccc(N=C=S)cc1S(=O)(=O)O [DIDS, reference compound]
shift in reversal potential of swelling-activated current ([1]; 50 μM DIDS, average n=6): −33 mV
effect on swelling-activated current ([1]; 50 μM DIDS, especially at depolarized potentials): significant reduction in current
